Measured values reported in patent publication US20220112470A1, “SYSTEMS AND METHODS FOR METABOLIC ENGINEERING” (THE TRUSTEES OF COLUMBIA UNIVERSITY IN THE CITY OF NEW YORK, priority 2019, published 2022).

What was measured:
LexA-TetR fusion protein = molecular target: T1, LexA-TetR fusion protein (Escherichia coli, UniProt P04483); assay: Y3H LacZ assay for tetracyclines; type: cell-based, Saccharomyces cerevisiae
T1 construct: expressed in transfected cells; host or cells: Saccharomyces cerevisiae: FY250-derived PBA-8 (LacZ), LW2635-derived PBA-14 (URA3 growth), FY250-derived HL-2-4-1 (mCherry); the other entry of the earlier key: lexA (P0A7C2, LexA repressor)
Experimental: Protocol for Y3H LacZ Assay. […] Pelleting and resuspension were repeated once more. […] The assay plate was placed in the shaker overnight. OD measurements were then taken after 24 h, and the cells ere pelleted and resuspended in 100 μL of Z-buffer (60 mM Na2HPO4, 40 mM NaH2PO4, 10 mM KCl, 2 mM MgSO4, pH adjusted to 7, 2.7 mL/L of β-mercaptoethanol added fresh the day of the assay). The cells were pelleted again, resuspended in 100 μL of Y-PER buffer (Fisher Scientific, no. 78990), and lysed for 30 min at rt before the addition of o-nitrophenyl β-Dgalactopyranoside (ONPG) in Z-buffer (8.5 μL, 10 mg/mL). After 90 min, a Na2CO3 solution (1 M, 110 μL) was added to quench the reaction. After pelleting at 3000 rpm, 175 μL of the supernatant was transferred into flat clear-bottom 96-well plates (Corning no. 353072), and OD420 was measured. The limit of detection was calculated as the concentration of molecule at which the signal-to-noise ratio of the assay was >3:1.^32,33

[1] = relative to tetracycline, literature (ref. 55); cited from earlier work
TetR [2] = molecular target: T2, TetR (Escherichia coli, UniProt P04483); conditions: literature (ref. 37); cited from earlier work
TetR [3] = molecular target: T2, TetR; conditions: literature (ref. 37); cited from earlier work; remark: listed apart in the source
[4] = test system: LexA-TetR fusion proteins of TetR classes A, B, C, D, E, G and H; assay: Y3H LacZ assay with varying TetR classes; type: cell-based, Saccharomyces cerevisiae; conditions: FIG. 2B
Experimental: Y3H Strain Construction. LexA-TetR Plasmids. Plasmids PBA-Gib5 and HL-249-1 through HL-249-6 encoding LexA-TetR protein fusions for the various TetR classes were cloned by Gibson Assembly of the appropriate TetR sequence with pMW103 digested with restriction enzymes BamHI-HF and EcoRI-HF (Table 3). All TetR sequences with the exception of B) were obtained as IDT gBlocks. TetR(B) sequence was amplified from pET21d-TetR, courtesy of A. Davidson.^25,26
LacZ Assay Strain Construction. V506 was grown overnight in UT-media.^27 The culture was then diluted […] with UT- and plated on UT-plates. Single colonies were streaked on HTU- and UT-plates and a streak growing on UT- but not on HTU-, indicating the loss of the pMW3-(GSG)2rGR2 plasmid, was glycerol stocked as PBA5. This strain was further used for the transformation of the LexA-TetR plasmids to generate LacZ assay strains PBA8 and HL-260-1 through HL-260-7.
Protocol for Y3H LacZ Assay. […] Pelleting and resuspension were repeated once more. […] The assay plate was placed in the shaker overnight. […] After pelleting at 3000 rpm, 175 μL of the supernatant was transferred into flat clear-bottom 96-well plates (Corning no. 353072), and OD420 was measured. The limit of detection was calculated as the concentration of molecule at which the signal-to-noise ratio of the assay was >3:1.^32,33

[5] = molecular target: LexA-TetR(B) fusion protein (Escherichia coli, UniProt P04483); conditions: purified TAN-1612 0.5 μM in assay well, 10 μM CID, FIG. 4B
Experimental: Protocol for Fluorescent Protein Y3H Assay. Fresh patches of Y3H strain HL-2-4-1 were inoculated into HTU-media (1 mL) in 24-well plates (flat, clear bottom, Corning no. 3526) and placed in the shaker. After 24 h, the cells were pelleted by centrifugation at 3250 rpm and resuspended in H2O (1 mL). Pelleting and resuspension were repeated once more. OD600 was measured by diluting 10× into H2O, and the cells were diluted accordingly into H2O for OD600=1 to be used as a 10× solution. A total of 20 μL of cells of OD600=1 were added to the assay plate as the last component in the assay plate (flat, clear bottom, black 96-well plate, Corning no. 3603). […] Starting conditions in the assay plate were OD600=0.1, 2% galactose, 2% raffinose, 0% glucose, 1×HTU-, 10 μM CID, 2% DMSO. The assay plate was placed in the 30° C. shaker overnight before measuring OD600 and 620 nm fluorescence (λex=588 nm).^31
Overnight cultures were used to inoculate 100 mL of YPD in 500 mL conical flasks with a starting OD600 of 0.08. After 68 h, 1 mL of culture was pelleted in 1.5 mL Eppendorf tubes at 14 000 rpm, sterile filtered, and diluted 20× into H2O to be used as a 10× stock solution.
The plate was covered with two layers of SealMate film (Excel Scientific, SM-KIT-BS) and placed in a shaker overnight. […]

9-NH2-minocycline
concentrations differentiated by the Y3H system (range) (LexA-TetR fusion protein; LacZ reporter, competition with Min-Mtx CID, FIG. 2C): 0.2 to 20 µM | acid stability [1]: high acid stability relative to tetracycline

Cc1c2c(c(O)c3c(O)cccc13)C(=O)C1(O)C(=O)C(C(N)=O)=C(O)CC1C2 (centres unmarked) [4-de(dimethylamino)-anhydrotetracycline]
binding to TetR (TetR [2]): possible to detect binding | induction in TetR-TetO-based assay (TetR [3]): no induction was detected

CN(C)c1cc(NC(=O)CNC(=O)CC[C@H](NC(=O)c2ccc(N(C)Cc3ccc4nc(N)nc(N)c4c3)cc2)C(=O)O)c(O)c2c1C[C@H]1C[C@H]3C(N(C)C)C(O)=C(C(N)=O)C(=O)[C@@]3(O)C(O)=C1C2=O (some centres unmarked) [Min-Mtx CID]
reporter gene output dependence on CID (LexA-TetR fusion protein; varying concentrations of Min-Mtx CID, FIG. 2A): dependent upon the presence of the CID | response to the CID, best TetR classes ([4]; TetR(B) and TetR(G)): showed the best response to the CID | responsiveness of the Y3H system to the CID ([4]; all TetR classes tested as protein receptors): responsive to the CID with all known TetR classes except for the TetR(C) variant used

COc1cc(O)c2c(O)c3c(cc2c1)CC1(O)CC(=O)C(C(C)=O)=C(O)C1(O)C3=O (centres unmarked) [TAN-1612]
Y3H signal (mCherry) of purified compound spiked into nonproducer supernatants [5]: resembles the signal obtained with producer supernatant
